From the supplement of paper PMC11061612

Columns and labels:
[1] = system: Mo-T (Other Blood Carcinomas); test: Bliss excess, mean over the matrix (fraction); higher = more synergy
How it was run: (§1)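 Bliss excess equals the observed combination effect minus the expected value EA + EB − EA·EB, where EA and EB are the effects of each agent alone. Combination Emax is the second-highest inhibition within the matrix. Inhibition was scaled from CellTiter-Glo 2.0 luminescence, with 0 set by vehicle wells and 1 by blank wells, after 72 hours of two-drug dosing of cells plated in 1536-well plates.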

[2] = system: Ca-Ski (Cervical Carcinoma); test: as above
How it was run: as §1

[3] = system: KGN (Other Solid Carcinomas); test: as above
How it was run: as §1

[4] = system: SW872 (Other Solid Carcinomas); test: as above
How it was run: as §1

[5] = system: HAL-01 (B-Lymphoblastic Leukemia); test: as above
How it was run: as §1

[6] = system: NCI-H1838 (Lung Adenocarcinoma); test: as above
How it was run: as §1

[7] = system: HCC2998 (Colorectal Carcinoma); test: as above
How it was run: as §1

[8] = system: HCC1937 (Breast Carcinoma); test: as above
How it was run: as §1

COLO-679 (Melanoma) = test: as above
How it was run: as §1

[9] = system: OE33 (Esophageal Adenocarcinoma); test: as above
How it was run: as §1

[10] = system: HCC1500 (Breast Carcinoma); test: as above
How it was run: as §1

[11] = system: MOLT-4 (T-Lymphoblastic Leukemia); test: as above
How it was run: as §1

[12] = system: SW982 (Other Solid Carcinomas); test: as above
How it was run: as §1

[13] = system: NCI-H1092 (Small Cell Lung Carcinoma); test: as above
How it was run: as §1

[14] = system: MV-4-11 (Acute Myeloid Leukemia); test: as above
How it was run: as §1

[15] = system: KMRC-1 (Kidney Carcinoma); test: as above
How it was run: as §1

SK-N-AS (Neuroblastoma) = test: as above
How it was run: as §1

[16] = system: ML-2 (Acute Myeloid Leukemia); test: as above
How it was run: as §1

[17] = system: Ca-Ski (Cervical Carcinoma); test: combination Emax (second highest fraction inhibited in the dose matrix, 72 h); higher = more inhibition; extreme values may be limits of the assay
How it was run: as §1

[18] = system: HCC1937 (Breast Carcinoma); test: as above
How it was run: as §1

SMILES	Bliss excess [1]	Bliss excess [2]	Bliss excess [3]	Bliss excess [4]	Bliss excess [5]	Bliss excess [6]	Bliss excess [7]	Bliss excess [8]	Bliss excess (COLO-679 (Melanoma))	Bliss excess [9]	Bliss excess [10]	Bliss excess [11]	Bliss excess [12]	Bliss excess [13]	Bliss excess [14]	Bliss excess [15]	Bliss excess (SK-N-AS (Neuroblastoma))	Bliss excess [16]	combination Emax [17]	combination Emax [18]
COc1cccc(OCCCN)c1-c1cc(Nc2cnc(C#N)cn2)n[nH]1 [Prexasertib] + Cc1cc2ncnn2cc1Nc1ncc2c(n1)n(C1CCOCC1)c(=O)n2C [AZD7648] (first compound max 1 µM, 7x7, partner max 10 µM)	0.0159	-0.0159	-0.0033	0.0191	-0.0257	-0.0126	-0.0053	-0.0594	-0.0157	0.0061	0.0354	0.0091	-0.0355	-0.0287	-0.0083	-0.0152	-0.0015	-0.0357	0.794	0.537
Cc1c2c(nn1C)CSCc1cc(n(C)n1)CSc1cc(c3ccccc3c1)OCCCc1c(C(=O)O)n(C)c3c-2c(Cl)ccc13 [AZD5991] + CC1(C)CCC(CN2CCN(c3ccc(C(=O)NS(=O)(=O)c4ccc(NCC5CCOCC5)c([N+](=O)[O-])c4)c(Oc4cnc5[nH]ccc5c4)c3)CC2)=C(c2ccc(Cl)cc2)C1 [Venetoclax] (first compound max 1 µM, 7x7, partner max 1 µM)	-0.0211	0.0006	-0.0308	-0.0443	0.0231	0.0125	-0.0362	-0.0208	-0.0218	-0.0077	0.256	0.124	-0.0312	0.117	0.0591	-0.0446	0.0857	0.16	0.682	0.316
Cn1cnc2c(F)c(Nc3ccc(Br)cc3Cl)c(C(=O)NOCCO)cc21 [Selumetinib] + C=CCn1c(=O)c2cnc(Nc3ccc(N4CCN(C)CC4)cc3)nc2n1-c1cccc(C(C)(C)O)n1 [AZD1775] (first compound max 10 µM, partner max 1 µM)	-0.0318	0.0199	-0.115	0.0086	0.0056	-0.0506	-0.0267	-0.0357	-0.0285	-0.0911	-0.0261	-0.02	-0.0112	-0.0961	0.0249	-0.0061	0.0024	-0.0186	0.711	0.562
CC1(C)CCC(CN2CCN(c3ccc(C(=O)NS(=O)(=O)c4ccc(NCC5CCOCC5)c([N+](=O)[O-])c4)c(Oc4cnc5[nH]ccc5c4)c3)CC2)=C(c2ccc(Cl)cc2)C1 [Venetoclax] + Cn1cnc2c(F)c(Nc3ccc(Br)cc3Cl)c(C(=O)NOCCO)cc21 [Selumetinib] (first compound max 1 µM, 7x7, partner max 3 µM)	0.021	-0.0038	-0.0406	-0.0158	0.0009	-0.0013	-0.0065	-0.0392	-0.0203	-0.0192	-0.023	0.021	-0.0722	-0.0691	-0.0022	-0.0344	0.0083	0.0747	0.219	0.264
CC1(C)CCC(CN2CCN(c3ccc(C(=O)NS(=O)(=O)c4ccc(NCC5CCOCC5)c([N+](=O)[O-])c4)c(Oc4cnc5[nH]ccc5c4)c3)CC2)=C(c2ccc(Cl)cc2)C1 [Venetoclax] + CCN(CCO)CCCOc1ccc2c(Nc3cc(CC(=O)Nc4cccc(F)c4)[nH]n3)ncnc2c1 [AZD2811] (first compound max 1 µM, 7x7, partner max 1 µM)	-0.125	0.0738	-0.038	-0.0179	-0.0133	0.0204	-0.0403	-0.0394	-0.0608	-0.0188	0.0905	-0.0368	-0.0257	0.075	0.0071	-0.0456	-0.0071	0.0167	0.346	0.264
COc1nnc2ccc(N3CCC(c4ccc(OCCN5CCN(C)C(=O)[C@H]5C)cc4)CC3)nn12 [AZD5153] + CC1(C)CCC(CN2CCN(c3ccc(C(=O)NS(=O)(=O)c4ccc(NCC5CCOCC5)c([N+](=O)[O-])c4)c(Oc4cnc5[nH]ccc5c4)c3)CC2)=C(c2ccc(Cl)cc2)C1 [Venetoclax] (first compound max 1 µM, 7x7, partner max 1 µM)	-0.0447	-0.095	-0.0165	-0.051	-0.0804	-0.0605	-0.0766	-0.0815	-0.0818	-0.0775	-0.04	-0.0198	-0.0581	0.0191	0.0014	-0.063	-0.0792	0.0122	0.616	0.344
C=CCn1c(=O)c2cnc(Nc3ccc(N4CCN(C)CC4)cc3)nc2n1-c1cccc(C(C)(C)O)n1 [AZD1775] + O=C(c1cc(Cc2n[nH]c(=O)c3ccccc23)ccc1F)N1CCN(C(=O)C2CC2)CC1 [Olaparib] (first compound max 1 µM, partner max 10 µM)	-0.0418	-0.0474	-0.0844	0.0141	-0.0542	-0.0774	-0.057	-0.0813	-0.0076	0.0117	0.0158	0.0101	-0.102	-0.0342	0.0445	-0.0224	-0.0075	0.0099	0.797	0.497
COc1nnc2ccc(N3CCC(c4ccc(OCCN5CCN(C)C(=O)[C@H]5C)cc4)CC3)nn12 [AZD5153] + Cn1cnc2c(F)c(Nc3ccc(Br)cc3Cl)c(C(=O)NOCCO)cc21 [Selumetinib] (first compound max 1 µM, 7x7, partner max 10 µM)	-0.0656	0.0324	-0.002	0.0635	0.0347	0.03	0.0118	-0.0523	-0.004	0.0318	0.0011	-0.0161	-0.0039	-0.0592	0.0309	-0.0365	0.0307	0.075	0.813	0.396
CC1(C)CCC(CN2CCN(c3ccc(C(=O)NS(=O)(=O)c4ccc(NCC5CCOCC5)c([N+](=O)[O-])c4)c(Oc4cnc5[nH]ccc5c4)c3)CC2)=C(c2ccc(Cl)cc2)C1 [Venetoclax] + COc1cc(Nc2ncc3c(n2)-c2ccc(Cl)cc2C(c2c(F)cccc2OC)=NC3)ccc1C(=O)O [Alisertib] (first compound max 1 µM, 7x7, partner max 10 µM)	0.0928	0.0128	-0.0167	0.0428	0.121	-0.0183	0.0056	-0.0852	0.0194	0.0221	0.141	-0.0938	-0.0524	0.294	0.0134	-0.012	0.0947	0.13	0.64	0.387
NC1(C(=O)N[C@@H](CCO)c2ccc(Cl)cc2)CCN(c2ncnc3[nH]ccc23)CC1 [Capivasertib] + C[C@@H]1COCCN1C2=NC(=NC(=C2)C3(CC3)[S@](=N)(=O)C)C4=C5C=CNC5=NC=C4 [AZD6738] (first compound max 10 µM, 7x7, partner max 10 µM)	0.0465	0.0076	-0.0783	-0.0244	-0.0267	-0.0733	-0.0629	-0.0142	-0.128	-0.0225	0.0226	0.0011	-0.0382	-0.0055	-0.0546	-0.0504	-0.0469	-0.0241	0.582	0.518
Cc1c2c(nn1C)CSCc1cc(n(C)n1)CSc1cc(c3ccccc3c1)OCCCc1c(C(=O)O)n(C)c3c-2c(Cl)ccc13 [AZD5991] + CCN(CCO)CCCOc1ccc2c(Nc3cc(CC(=O)Nc4cccc(F)c4)[nH]n3)ncnc2c1 [AZD2811] (first compound max 1 µM, 7x7, partner max 1 µM)	-0.0109	0.0869	-0.0067	0.0237	0.0012	0.0109	0.0679	-0.0028	0.0115	-0.002	0.0466	-0.0126	-0.0578	0.0479	-0.0046	0.0096	0.0414	-0.0122	0.7	0.4
COc1nnc2ccc(N3CCC(c4ccc(OCCN5CCN(C)C(=O)[C@H]5C)cc4)CC3)nn12 [AZD5153] + C=CCn1c(=O)c2cnc(Nc3ccc(N4CCN(C)CC4)cc3)nc2n1-c1cccc(C(C)(C)O)n1 [AZD1775] (first compound max 1 µM, partner max 1 µM)	-0.0532	0.0125	-0.12	-0.0374	-0.0938	-0.0531	-0.0083	-0.0921	-0.042	-0.0386	0.0305	0.0171	-0.079	0.0051	-0.0114	-0.0108	-0.056	-0.0214	0.791	0.472
